Results as given in patent publication US10519153B2, “Fused imidazo-piperidine JAK inhibitors” (THERAVANCE BIOPHARMA R&D IP, LLC, priority 2017, dated 2019).

Tested on: IL-6 stimulated pSTAT3 in CD3+ T cells
Assay: Inhibition of IL-6 stimulated pSTAT3 in CD3+ T cells
Format: cell-based, human
Source text: Assay 10: Cellular JAK Potency Assay: Inhibition of IL-6 Stimulated pSTAT3 in CD3+ T Cells
A protocol analogous to that of Assay 9 was used to determine the potency of the test compound for inhibition of interleuken-6 (IL-6) stimulated STAT3 phosphorylation. An Alexa Fluor 647 conjugated anti-pSTAT3 antibody (pY705, Clone 4/P, BD Biosciences) was used to detect STAT3 phosphorylation.

SMILES	inhibition of IL-6 signaling (in words)
CCc1cc(O)c(F)cc1-c1ccc2c(-c3nc4c([nH]3)CN(C(C)C)[C@H](C(=O)N3CC[C@H](N(C)C)C3)C4)n[nH]c2c1 [Example 3]	inhibit IL-6 signaling
CCCN1Cc2[nH]c(-c3n[nH]c4cc(-c5cc(F)c(O)cc5CC)ccc34)nc2C[C@H]1C(=O)N1C[C@@H]2C[C@H]1CN2C [Example 1, ((S)-2-(6-(2-ethyl-5-fluoro-4-hydroxyphenyl)-1H-indazol-3-yl)-5-propyl-4,5,6,7-tetrahydro-3H-imidazo[4,5-c]pyridin-6-yl)((1S,4S)-5-methyl-2,5-diazabicyclo-[2.2.1]heptan-2-yl)methanone]	inhibit IL-6 signaling
